The test system of one series is leukaemia L1210. In words: Antitumour activity against leukaemia L1210 (survival). Further details: MST: unit not given here. The note with it: L1210 s.c., i.p. days 1, 2, 3; for MST: median survival time; for T/C: treated/control. Type of series: in vivo, BDF₁ mice. The method, then:
Antitumour effects. Male Swiss Schneider mice of 27g body weight were used for the sarcoma S180 experiments: female C₅₇Bl mice of 20g body weight were used for the B16 melanoma experiments; […]; and C₅₇Bl mice of 20g body weight were used for the Lewis lung experiments.
L1210. Spleens were removed from animals 7 days after inoculation of L1210 cells and these spleens were finely minced with 1:100 isotonic saline. 0.1 ml of this spleen and leukaemia L1210 cell suspension was then injected subcutaneously into the flank of each BDF₁.

Series [1] concerns Lewis lung carcinoma (3LL). The series is described as follows: Lewis lung carcinoma (3LL): primary tumour and lung secondaries. Type of series: in vivo, C₅₇Bl mice. To be noted: C57Bl mice, 3LL s.c., 8/group; ADR 3 mg/kg i.p. days 6-10; in combination CRN 200 mg/kg. The method, then:
Antitumour effects. Male Swiss Schneider mice of 27g body weight were used for the sarcoma S180 experiments: female C₅₇Bl mice of 20g body weight were used for the B16 melanoma experiments; male BDF₁ mice of 30g body weight were used for the L1210 leukaemia experiments; and C₅₇Bl mice of 20g body weight were used for the Lewis lung experiments.
Lewis lung (3LL). This tumour was prepared for inoculation in a manner identical to that used for the S180 sarcoma.
This tumour metastasizes to the lungs when implanted into the flanks of mice. […]

Take `CO[C@@]12[C@H](COC(N)=O)C3=C(C(=O)C(C)=C(N)C3=O)N1C[C@@H]1N[C@@H]12` [MMC, Mitomycin C]: the “SURVIVORS 14d” value in the series with leukaemia L1210 (Table 15: BDF mice, 8/group, MMC 5 mg/kg, in combination CRN 200 mg/kg) was 1. In addition, the MST in the series on leukaemia L1210 (Table 15: BDF mice, MMC 5 mg/kg, in combination CRN 200 mg/kg, control 7.1) came to 7.0.

Regarding `COc1cccc2c1C(=O)c1c(O)c3c(c(O)c1C2=O)C[C@@](O)(C(=O)CO)C[C@@H]3O[C@H]1C[C@H](N)[C@H](O)[C@H](C)O1` [ADR, adriamycin], the “DEATHS L1210” value is on record as 8 in the series on leukaemia L1210 (Table 11: BDF ♀ 20g, 8/group, ADR 4.0 mg/kg, in combination CRON 200); 8 in the series on leukaemia L1210 (Table 11: BDF ♀ 20g, 8/group, ADR 6.0 mg/kg, in combination CRON 200); 8 with leukaemia L1210 (Table 11: BDF ♀ 20g, 8/group, ADR 8.0 mg/kg, in combination CRON 200); 1 with leukaemia L1210 (Table 12: BDF ♂ 35g (6/12 old), 8/group, ADR 6.0 mg/kg). The “DEATHS TOXICITY” value in the series on leukaemia L1210 (Table 12: BDF ♂ 35g (6/12 old), 8/group, ADR 6.0 mg/kg, in combination CRON 200) was 7; in the series on leukaemia L1210 (Table 12: BDF ♂ 35g (6/12 old), 8/group, ADR 8.0 mg/kg, in combination CRON 200) it was 8; in the series on leukaemia L1210 (Table 12: BDF ♂ 35g (6/12 old), 8/group, ADR 10.0 mg/kg, in combination CRON (dose not given)) it was 8; in the series with leukaemia L1210 (Table 13: BDF ♀ 25g (2-3/12 old), 7/group, ADR 10.0 mg/kg, in combination CRON 200), 7; in the series with leukaemia L1210 (Table 13: BDF ♀ 25g (2-3/12 old), 7/group, ADR 12.5 mg/kg, in combination CRON 200), 7; in the series with leukaemia L1210 (Table 13: BDF ♀ 25g (2-3/12 old), 7/group, ADR 15.0 mg/kg, in combination CRON (dose not given)), 7. For the same molecule, the COMMENTS entry in the series with leukaemia L1210 (Table 12: BDF ♂ 35g (6/12 old), ADR 8.0 mg/kg) is “Toxic”; in the series with leukaemia L1210 (Table 12: BDF ♂ 35g (6/12 old), ADR 10.0 mg/kg, bracket spans ADR and ADR/CRON lines), “) Toxic”; with leukaemia L1210 (Table 13: BDF ♀ 25g (2-3/12 old), ADR 12.5 mg/kg, bracket spans ADR and ADR/CRON lines) it was “} Toxic”; in the series with leukaemia L1210 (Table 13: BDF ♀ 25g (2-3/12 old), ADR 15.0 mg/kg, bracket spans ADR and ADR/CRON lines), “} Toxic”. For the same molecule, the MST amounted to 10.8 in the series with leukaemia L1210 (Table 11: BDF ♀ 20g, ADR 4.0 mg/kg, in combination CRON 200, control 6.8); 9.7 in the series on leukaemia L1210 (Table 11: BDF ♀ 20g, ADR 6.0 mg/kg, in combination CRON 200, control 6.8); 11.8 in the series on leukaemia L1210 (Table 11: BDF ♀ 20g, ADR 8.0 mg/kg, in combination CRON 200, control 6.8); 9.38 with leukaemia L1210 (Table 12: BDF ♂ 35g (6/12 old), ADR 6.0 mg/kg, in combination CRON 200, control 7.0); 5.8 with leukaemia L1210 (Table 12: BDF ♂ 35g (6/12 old), ADR 8.0 mg/kg, in combination CRON 200, control 7.0); 5.5 in the series on leukaemia L1210 (Table 12: BDF ♂ 35g (6/12 old), ADR 10.0 mg/kg, in combination CRON (dose not given), control 7.0). Moreover, the MST is on record as 10.3 in the series with leukaemia L1210 (Table 13: BDF ♀ 25g (2-3/12 old), ADR 10.0 mg/kg, in combination CRON 200, control 10.6); 5.4 in the series on leukaemia L1210 (Table 13: BDF ♀ 25g (2-3/12 old), ADR 12.5 mg/kg, in combination CRON 200, control 10.6); 5.1 in the series with leukaemia L1210 (Table 13: BDF ♀ 25g (2-3/12 old), ADR 15.0 mg/kg, in combination CRON (dose not given), control 10.6). The T/C in the series with leukaemia L1210 (Table 11: BDF ♀ 20g, ADR 4.0 mg/kg, in combination CRON 200) stood at 159; in the series with leukaemia L1210 (Table 11: BDF ♀ 20g, ADR 6.0 mg/kg, in combination CRON 200), 135; in the series on leukaemia L1210 (Table 11: BDF ♀ 20g, ADR 8.0 mg/kg, in combination CRON 200), 174; in the series with leukaemia L1210 (Table 12: BDF ♂ 35g (6/12 old), ADR 6.0 mg/kg, in combination CRON 200), 134; in the series on leukaemia L1210 (Table 12: BDF ♂ 35g (6/12 old), ADR 8.0 mg/kg, in combination CRON 200) it was 83; in the series with leukaemia L1210 (Table 12: BDF ♂ 35g (6/12 old), ADR 10.0 mg/kg, in combination CRON (dose not given)) it was 79. In addition, the T/C stood at 97 in the series with leukaemia L1210 (Table 13: BDF ♀ 25g (2-3/12 old), ADR 10.0 mg/kg, in combination CRON 200); 51 in the series on leukaemia L1210 (Table 13: BDF ♀ 25g (2-3/12 old), ADR 12.5 mg/kg, in combination CRON 200); 48 in the series with leukaemia L1210 (Table 13: BDF ♀ 25g (2-3/12 old), ADR 15.0 mg/kg, in combination CRON (dose not given)). Moreover, the “COMMENTS (survival)” value in series [1] is “All ADR alone animals dead by d17”.

These data come from patent publication EP0345251B1 (priority 1986, dated 1988).
